From ChEMBL document CHEMBL6153051, “Synthesis, biological evaluation and validation of IMB-881 derivatives as anti-Gram-negative bacterial agents” (Bioorg Med Chem, 2025)
Values after ≈ are worked out from the molar mass of the structure shown. Active and inactive are the calls of the source. The calls are words filed in the database; no cut-off is given here.

Tests used:
Escherichia coli [1] = assay: Antibacterial activity against ESBL(+) producing Escherichia coli ATCC 35218 assessed as bacterial growth inhibition in presence of CAMHB medium by broth microdilution method; assay type: functional
Escherichia coli [2] = assay: Antibacterial activity against Escherichia coli ATCC 25922 assessed as bacterial growth inhibition in presence of CAMHB medium by broth microdilution method; assay type: functional
Acinetobacter baumannii [3] = assay: Antibacterial activity against Acinetobacter baumannii ATCC 19606 assessed as bacterial growth inhibition in presence of CAMHB medium by broth microdilution method; assay type: functional
Klebsiella pneumoniae = assay: Antibacterial activity against Klebsiella pneumoniae ATCC […] assessed as bacterial growth inhibition in presence of CAMHB medium by broth microdilution method; assay type: functional
Pseudomonas aeruginosa = assay: Antibacterial activity against Pseudomonas aeruginosa PAO1 assessed as bacterial growth inhibition in presence of CAMHB medium by broth microdilution method; assay type: functional
[4] = Cytotoxicity against green monkey Vero cells incubated for 48 hrs by CCK-8 assay; assay type: toxicity, cell-based; details: green monkey (Chlorocebus sabaeus)
[5] = Cytotoxicity against dog MDCK cells incubated for 48 hrs by CCK-8 assay; assay type: toxicity, cell-based; details: dog (Canis lupus familiaris)
Escherichia coli [6] = assay: Antibacterial activity against multi-drug resistant Escherichia coli 1 clinical isolate assessed as bacterial growth inhibition in presence of CAMHB medium by broth microdilution method; assay type: functional
Escherichia coli [7] = assay: Antibacterial activity against multi-drug resistant Escherichia coli 2 clinical isolate assessed as bacterial growth inhibition in presence of CAMHB medium by broth microdilution method; assay type: functional
Escherichia coli [8] = assay: Antibacterial activity against multi-drug resistant Escherichia coli 3 clinical isolate assessed as bacterial growth inhibition in presence of CAMHB medium by broth microdilution method; assay type: functional
Escherichia coli [9] = assay: Antibacterial activity against multi-drug resistant Escherichia coli 4 clinical isolate assessed as bacterial growth inhibition in presence of CAMHB medium by broth microdilution method; assay type: functional
Escherichia coli [10] = assay: Antibacterial activity against multi-drug resistant Escherichia coli 5 clinical isolate assessed as bacterial growth inhibition in presence of CAMHB medium by broth microdilution method; assay type: functional
Acinetobacter baumannii [11] = assay: Antibacterial activity against multi-drug resistant Acinetobacter baumannii 1 clinical isolate assessed as bacterial growth inhibition in presence of CAMHB medium by broth microdilution method; assay type: functional
Acinetobacter baumannii [12] = assay: Antibacterial activity against multi-drug resistant Acinetobacter baumannii 2 clinical isolate assessed as bacterial growth inhibition in presence of CAMHB medium by broth microdilution method; assay type: functional
Acinetobacter baumannii [13] = assay: Antibacterial activity against multi-drug resistant Acinetobacter baumannii 3 clinical isolate assessed as bacterial growth inhibition in presence of CAMHB medium by broth microdilution method; assay type: functional
Acinetobacter baumannii [14] = assay: Antibacterial activity against multi-drug resistant Acinetobacter baumannii 4 clinical isolate assessed as bacterial growth inhibition in presence of CAMHB medium by broth microdilution method; assay type: functional
Acinetobacter baumannii [15] = assay: Antibacterial activity against multi-drug resistant Acinetobacter baumannii 5 clinical isolate assessed as bacterial growth inhibition in presence of CAMHB medium by broth microdilution method; assay type: functional
Escherichia coli [16] = assay: Antibacterial activity against Escherichia coli ATCC 25922 infected in Galleria mellonella assessed as increase in larvae survival rate measured upto 96 hrs; assay type: functional, organism-based; details: dose 1.25-10 mg/kg
Escherichia coli [17] = assay: Antibacterial activity against Escherichia coli ATCC 25922 infected in Galleria mellonella assessed as increase in larvae survival rate at 1.25 mg/kg measured upto 96 hrs relative to control; assay type: functional
Escherichia coli [18] = assay: Antibacterial activity against Escherichia coli ATCC 25922 infected in Galleria mellonella assessed as increase in larvae survival rate at 10 mg/kg measured after 6 days post-inoculation relative to control; assay type: functional; details: ATCC 25922, 144 h, time 6 day
[19] = Inhibition of LptA /LptC (unknown origin) interaction expressed in yeast AH109 assessed as growth inhibition incubated for 48 hrs
Saccharomyces cerevisiae = assay: Antimicrobial activity against yeast AH109 expressing T/53 assessed as growth inhibition incubated for 48 hrs; assay type: functional
[20] = Selectivity index, ratio of MIC for antimicrobial activity against yeast AH109 expressing T/53 to MIC for inhibition of LptA /LptC (unknown origin) interaction expressed in yeast AH109
[21] = Binding affinity to His-tagged LptA (unknown origin) assessed as dissociation constant incubated for 60 to 120 s by BLI analysis
Escherichia coli [22] = assay: Induction of morphological changes in Escherichia coli ATCC 25922 assessed as cell elongation in presence of LB medium measured after 1 to 3 hrs by crystal violet staining based light microscopic analysis; assay type: functional, organism-based; details: time 1-3 hrs
Escherichia coli [23] = assay: Induction of morphological changes in Escherichia coli ATCC 25922 assessed as appearance of filamentous cell in presence of LB medium measured after 1 to 3 hrs by crystal violet staining based light microscopic analysis; assay type: functional, organism-based; details: time 1-3 hrs
Escherichia coli [24] = assay: Induction of morphological changes in Escherichia coli ATCC 25922 assessed as appearance of incomplete outer membrane in presence of LB medium incubated for 12 hrs by transmission electron microscopic analysis; assay type: functional, organism-based
Escherichia coli [25] = assay: Induction of outer membrane damage in Escherichia coli ATCC 25922 assessed as increase in EtBr fluorescence intensity in presence of LB medium incubated for 12 hrs by fluorescence plate-reader analysis; assay type: functional, organism-based

Compound | MIC (Escherichia coli [1]) | MIC (Escherichia coli [2]) | MIC (Acinetobacter baumannii [3]) | MIC (Klebsiella pneumoniae) | MIC (Pseudomonas aeruginosa) | IC50 at 48 h [4] | IC50 at 48 h [5] | MIC (Escherichia coli [6]) | MIC (Escherichia coli [7]) | MIC (Escherichia coli [8]) | MIC (Escherichia coli [9]) | MIC (Escherichia coli [10]) | MIC (Acinetobacter baumannii [11]) | MIC (Acinetobacter baumannii [12]) | MIC (Acinetobacter baumannii [13]) | MIC (Acinetobacter baumannii [14]) | MIC (Acinetobacter baumannii [15]) | MIC [19] | MIC (Saccharomyces cerevisiae) | Selectivity Index [20] | also measured
Clc1cc2c(c3ncccc13)OCN(CCCc1ccccc1)C2 | 25 µg/mL | 6.25 µg/mL | 3.12 µg/mL | 100 µg/mL | 50 µg/mL | > 50 µg/mL | 43.8 µg/mL (≈ 129 µM) | 50 µg/mL | 50 µg/mL | 50 µg/mL | 50 µg/mL | 50 µg/mL | 6.25 µg/mL | 12.5 µg/mL | 12.5 µg/mL | 12.5 µg/mL | 6.25 µg/mL | 6.25 µg/mL (≈ 18.4 µM) | 25 µg/mL (≈ 73.8 µM) | 4 | Activity (Escherichia coli [16]): Dose-dependent-effect; survival at 1.25 mg/kg (Escherichia coli [17]): 60%; survival at 10 mg/kg (Escherichia coli [18]): 70%; Kd [21]: 32.2 nM; Activity (Escherichia coli [22]): Active; Activity (Escherichia coli [23]): Active; Activity (Escherichia coli [24]): Active; Activity (Escherichia coli [25]): Dose-dependent-effect
Clc1cc2c(c3ncccc13)OCN(CCc1ccccc1)C2 | > 100 µg/mL | 6.25 µg/mL | 3.12 µg/mL | 100 µg/mL | 50 µg/mL | 14.3 µg/mL (≈ 44.2 µM) | 7.24 µg/mL (≈ 22.3 µM) | 50 µg/mL | 50 µg/mL | 50 µg/mL | 50 µg/mL | 50 µg/mL | 100 µg/mL | 100 µg/mL | 100 µg/mL | 100 µg/mL | 100 µg/mL | 12.5 µg/mL (≈ 38.5 µM) | 25 µg/mL (≈ 77 µM) | 2 | Kd [21]: 1.49 nM
Clc1ccc(CN2COc3c(cc(Cl)c4cccnc34)C2)cc1 | 25 µg/mL | 6.25 µg/mL | 3.12 µg/mL | 50 µg/mL | 25 µg/mL | > 50 µg/mL | 47.8 µg/mL (≈ 138 µM) | 50 µg/mL | 50 µg/mL | 50 µg/mL | 50 µg/mL | 50 µg/mL | 12.5 µg/mL | 6.25 µg/mL | 12.5 µg/mL | 12.5 µg/mL | 6.25 µg/mL | 12.5 µg/mL (≈ 36.2 µM) | 25 µg/mL (≈ 72.4 µM) | 2 | Activity (Escherichia coli [16]): Dose-dependent-effect; survival at 1.25 mg/kg (Escherichia coli [17]): 50%; survival at 10 mg/kg (Escherichia coli [18]): 80%; Kd [21]: 54.4 nM; Activity (Escherichia coli [22]): Active; Activity (Escherichia coli [23]): Active; Activity (Escherichia coli [24]): Active; Activity (Escherichia coli [25]): Dose-dependent-effect
